Values quoted from earlier work, collected in US20040126339A1, “Sunscreen composition and methods for manufacturing and using a sunscreen composition” (priority 2002, published 2004).

Settings: in vivo

Substance	dermal toxicity
Poly(vinylpyrrolidone/1-eicosene) [PVPE]	no demonstrable dermal toxicity
Poly(vinylpyrrolidone/1-hexadecene) [PVPH]	no demonstrable dermal toxicity
